Data published in patent US20120101100A1 (priority 2008, published 2012).

Molecular target: S. aureus GyrB ATPase (Staphylococcus aureus, UniProt P0A0K8)
Experiment: S. aureus (SAU) GyrB ATPase inhibition, malachite green phosphate detection (E. coli GyrA + S. aureus GyrB)
Type: biochemical
Details: compound concentration of 1.0 μM unless otherwise noted; average value where assay was carried out more than once; read-out: S. aureus (SAU) GyrB ATPase % Inhibition
Protocol: Compounds were tested for inhibition of GyrB ATPase activity using an ammonium molybdate/malachite green-based phosphate detection assay (Lanzetta, P. A., L. J. Alvarez, P. S. Reinach, and O. A. Candia, 1979, 100: 95-97). Assays were performed in multiwell plates in 100 μl reactions containing: 50 mM Hepes buffer pH 7.5, 75 mM ammonium acetate, 8.0 mM magnesium chloride, 1.0 mM ethylenediaminetetraacetic acid, 5% glycerol, 2 mM 1,4-Dithio-DL-threitol, 400 nM bovine serum albumin, 5 μg/ml sheared salmon sperm DNA, 1.25 nM E. coli GyrA, 1.25 nM S. aureus GyrB, 500 μM ATP, and compound in dimethylsulfoxide. Reactions were quenched with 150 μl of ammonium molybdate/malachite green detection reagent containing 1.2 mM malachite green hydrochloride, 8.5 mM ammonium molybdate tetrahydrate, and 1 M hydrochloric acid. Plates were read in an absorbance plate reader at 650 nm and percent inhibition values were calculated using dimethylsulfoxide (2%)-containing reactions as 0% inhibition and novobiocin-containing (2 μM) reactions as 100% inhibition controls. Compound potency was based on IC50 measurements determined from reactions performed in the presence of 10 different compound concentrations.

Chain of S. aureus GyrB ATPase (P0A0K8 whole entry): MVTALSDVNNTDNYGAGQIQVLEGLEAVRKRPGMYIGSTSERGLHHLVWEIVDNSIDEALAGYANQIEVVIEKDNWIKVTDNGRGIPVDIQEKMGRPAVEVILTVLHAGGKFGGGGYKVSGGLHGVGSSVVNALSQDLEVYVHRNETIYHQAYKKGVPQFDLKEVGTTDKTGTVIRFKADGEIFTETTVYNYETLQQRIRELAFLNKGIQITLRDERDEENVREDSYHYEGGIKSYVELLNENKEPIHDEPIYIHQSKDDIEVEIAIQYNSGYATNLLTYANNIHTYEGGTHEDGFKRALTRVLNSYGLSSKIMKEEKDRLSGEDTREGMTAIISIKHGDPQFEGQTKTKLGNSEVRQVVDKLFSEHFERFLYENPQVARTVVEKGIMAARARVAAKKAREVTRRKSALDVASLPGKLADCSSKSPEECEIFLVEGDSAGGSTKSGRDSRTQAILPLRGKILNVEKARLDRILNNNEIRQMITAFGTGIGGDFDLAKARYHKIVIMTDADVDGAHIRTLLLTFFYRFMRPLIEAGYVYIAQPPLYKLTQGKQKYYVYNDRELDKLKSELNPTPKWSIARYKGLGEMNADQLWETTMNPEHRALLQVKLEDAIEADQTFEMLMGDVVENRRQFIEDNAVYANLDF
Chain of S. aureus GyrB ATPase (P0AES4 whole entry, further chain): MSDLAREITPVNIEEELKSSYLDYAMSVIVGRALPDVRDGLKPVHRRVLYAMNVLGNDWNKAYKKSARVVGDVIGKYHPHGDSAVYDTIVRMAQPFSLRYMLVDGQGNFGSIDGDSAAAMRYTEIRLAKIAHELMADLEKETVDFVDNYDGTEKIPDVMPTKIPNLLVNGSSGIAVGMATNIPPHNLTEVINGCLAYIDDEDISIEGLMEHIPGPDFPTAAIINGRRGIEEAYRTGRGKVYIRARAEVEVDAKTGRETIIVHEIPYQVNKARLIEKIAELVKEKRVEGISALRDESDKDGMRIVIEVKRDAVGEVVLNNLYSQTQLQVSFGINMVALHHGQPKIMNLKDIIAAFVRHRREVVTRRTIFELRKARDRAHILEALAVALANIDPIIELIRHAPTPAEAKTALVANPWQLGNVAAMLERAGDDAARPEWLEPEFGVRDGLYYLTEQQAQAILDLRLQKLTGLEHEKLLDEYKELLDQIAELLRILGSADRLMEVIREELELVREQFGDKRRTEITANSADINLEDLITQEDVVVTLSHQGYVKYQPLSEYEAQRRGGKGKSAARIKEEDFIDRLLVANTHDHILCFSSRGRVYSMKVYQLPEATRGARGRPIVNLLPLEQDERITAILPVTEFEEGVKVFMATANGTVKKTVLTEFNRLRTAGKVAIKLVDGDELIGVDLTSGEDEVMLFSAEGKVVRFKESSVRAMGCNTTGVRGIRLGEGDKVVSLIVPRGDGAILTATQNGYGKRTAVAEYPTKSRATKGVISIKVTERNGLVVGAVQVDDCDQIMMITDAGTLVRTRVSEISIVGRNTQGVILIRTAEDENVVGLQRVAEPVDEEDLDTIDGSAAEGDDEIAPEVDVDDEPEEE

SMILES | inhibition at 1 µM [%]
CCCNC(=O)Nc1cc(-c2nc(C(F)(F)F)cs2)c(-c2ccnc(-c3nnc(O)o3)c2)cn1 [Example 175, 1-(2′-(5-hydroxy-1,3,4-oxadiazol-2-yl)-4-(4-(trifluoromethyl)thiazol-2-yl)-3,4′-bipyridin-6-yl)-3-propylurea] | 93
CCNC(=O)Nc1cc(-c2nc(C(F)(F)F)cs2)c(-c2cncc(-c3nnc(COC(C)=O)o3)c2)cn1 [Example 276, (5-(6′-(3-ethylureido)-4′-(4-(trifluoromethyl)thiazol-2-yl)-3,3′-bipyridin-5-yl)-1,3,4-oxadiazol-2-yl)methyl acetate] | 98
CCNC(=O)Nc1cc(-c2nc(C(F)(F)F)c(C(=O)NC3CC3)s2)c(-c2cncc(-c3n[nH]c(=O)o3)c2)cn1 [Example 65] | 94
CCNC(=O)Nc1cc(-c2nc(-c3cccc(OC)n3)cs2)c(-c2ccnc(-c3n[nH]c(=O)o3)c2)cn1 [Example 248, 1-ethyl-3-(4-(4-(6-methoxypyridin-2-yl)thiazol-2-yl)-2′-(5-oxo-4,5-dihydro-1,3,4-oxadiazol-2-yl)-3,4′-bipyridin-6-yl)urea] | 104
CCNC(=O)Nc1cc(-c2nc(-c3ccccc3)cs2)c(-c2cc(-c3nnc(C)o3)cnc2CC)cn1 [Example 74] | 94
CCNC(=O)Nc1cc(-c2nc(C(F)(F)F)cs2)c(-c2nc3c(=O)[nH][nH]c(=O)c3s2)cn1 [Example 16, 1-{5-(4,7-dioxo-4,5,6,7-tetrahydro[1,3]thiazolo[4,5-d]pyridazin-2-yl)-4-[4-(trifluoromethyl)-1,3-thiazol-2-yl]pyridin-2-yl}-3-ethylurea] | 115
CCNC(=O)Nc1cc(-c2nc(-c3ccccc3)cs2)c(-c2cc(OCC)nc(-c3n[nH]c(=O)o3)c2)cn1 [Example 77, 1-(2′-ethoxy-6′-(5-oxo-4,5-dihydro-1,3,4-oxadiazol-2-yl)-4-(4-phenylthiazol-2-yl)-3,4′-bipyridin-6-yl)-3-ethylurea] | 97
CCNC(=O)Nc1cc(-c2nc(C(F)(F)F)cs2)c(-c2cc(-c3n[nH]c(=O)o3)cnc2OC[C@@H](C)O)cn1 [Example 225] | 117
CCNC(=O)Nc1cc(-c2nc(C(F)(F)F)cs2)c(-c2cc(-c3nnc(C)o3)c[n+]([O-])c2)cn1 [Example 255, 6′-(3-ethylureido)-5-(5-methyl-1,3,4-oxadiazol-2-yl)-4′-(4-(trifluoromethyl)thiazol-2-yl)-3,3′-bipyridine 1-oxide] | 98
O=C(NCC1CC1)Nc1cc(-c2nc(C(F)(F)F)cs2)c(-c2cncc(-c3n[nH]c(=O)o3)c2)cn1 [Example 48, 1-(cyclopropylmethyl)-3-(5′-(5-oxo-4,5-dihydro-1,3,4-oxadiazol-2-yl)-4-(4-(trifluoromethyl)thiazol-2-yl)-3,3′-bipyridin-6-yl)urea] | 95
CCNC(=O)Nc1cc(-c2nc(C(F)(F)F)cs2)c(-c2cc(-c3nnc(C)o3)cnc2CC)cn1 [Example 73, 1-ethyl-3-(2′-ethyl-5′-(5-methyl-1,3,4-oxadiazol-2-yl)-4-(4-(trifluoromethyl)thiazol-2-yl)-3,3′-bipyridin-6-yl)urea] | 97
CCNC(=O)Nc1cc(-c2nc(-c3cnn(C)c3)cs2)c(-c2cc(-c3nnc(C)o3)cnc2OC2CCOCC2)cn1 [Example 231, 1-ethyl-3-(5′-(5-methyl-1,3,4-oxadiazol-2-yl)-4-(4-(1-methyl-1H-pyrazol-4-yl)thiazol-2-yl)-2′-(tetrahydro-2H-pyran-4-yloxy)-3,3′-bipyridin-6-yl)urea] | 96
CCNC(=O)Nc1cc(-c2nc(-c3ccccn3)cs2)c(-c2cncc(-c3n[nH]c(=O)o3)c2)cn1 [Example 10, N-ethyl-N′-[5′-(5-oxo-4,5-dihydro-1,3,4-oxadiazol-2-yl)-4-(4-pyridin-2-yl-1,3-thiazol-2-yl)-3,3′-bipyridin-6-yl]urea] | 95
CCNC(=O)Nc1cc(-c2nc(C(F)(F)F)cs2)c(-c2cncc(-c3nn(CCO)c(=O)o3)c2)cn1 [Example 162] | 98
